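In this assay, cells in 96-well plates receive the compound at five concentrations for 48 hours. Endpoints are linearly interpolated between the surrounding concentrations. GI50: concentration for 50% inhibition of growth. Definition used: TGI = concentration required for complete inhibition of growth.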
Columns and labels:
Experiment in all cases: growth of human tumour cells (NCI), 48 h; in the data active = GI50 below about 0.43 µM; inactive = the rest
[1] = system: 786-0 renal
[2] = system: A498 renal
[3] = system: A549 NSCLC
[4] = system: ACHN renal
[5] = system: BT-549 breast
[6] = system: CAKI-1 renal
[7] = system: CCRF-CEM leukemia
[8] = system: COLO 205 colon
[9] = system: DU-145 prostate
[10] = system: HCC-2998 colon
[11] = system: HCT-116 colon
[12] = system: HCT-15 colon
[13] = system: HL-60(TB) leukemia
[14] = system: HOP-62 NSCLC
[15] = system: HOP-92 NSCLC
[16] = system: HS 578T breast
[17] = system: HT29 colon
[18] = system: IGROV1 ovarian
[19] = system: K-562 leukemia
[20] = system: KM12 colon
[21] = system: LOX IMVI melanoma
[22] = system: M14 melanoma
[23] = system: MALME-3M melanoma
[24] = system: MCF7 breast
[25] = system: MDA-MB-231 breast
[26] = system: MDA-MB-435
[27] = system: MOLT-4 leukemia
[28] = system: NCI-H226 lung
[29] = system: NCI-H23 lung
[30] = system: NCI-H460 lung
[31] = system: NCI-H522 lung
[32] = system: NCI/ADR-RES ovarian
[33] = system: OVCAR-3 ovarian
[34] = system: OVCAR-4 ovarian
[35] = system: OVCAR-5 ovarian
[36] = system: OVCAR-8 ovarian
[37] = system: PC-3 prostate
[38] = system: RPMI-8226 leukemia
[39] = system: RXF 393 renal
[40] = system: SF-268 CNS
[41] = system: SF-295 CNS
[42] = system: SF-539 CNS
[43] = system: SK-MEL-2 melanoma
[44] = system: SK-MEL-28 melanoma
[45] = system: SK-MEL-5 melanoma
[46] = system: SK-OV-3 ovarian
[47] = system: SN12C renal
[48] = system: SNB-19 CNS
[49] = system: SNB-75 CNS
[50] = system: SR leukemia
[51] = system: SW-620 colon
[52] = system: T-47D breast
[53] = system: TK-10 renal
[54] = system: U251 CNS
[55] = system: UACC-257 melanoma
[56] = system: UACC-62 melanoma
[57] = system: UO-31 renal

C/C(=C1\SC(=NCc2cccs2)NC1=O)c1ccc2ncccc2c1
> 25 µM: TGI [1] | TGI [2] | TGI [3] | TGI [4] | TGI [5] | TGI [6] | TGI [7] | TGI [8] | TGI [9] | TGI [10] | TGI [11] | TGI [12] | TGI [13] | TGI [14] | TGI [15] | TGI [16] | TGI [17] | TGI [18] | TGI [19] | TGI [20] | TGI [21] | TGI [22] | TGI [23] | TGI [24] | TGI [25] | TGI [26] | TGI [27] | TGI [28] | TGI [29] | TGI [30] | TGI [31] | TGI [32] | TGI [33] | TGI [34] | TGI [35] | TGI [36] | TGI [37] | TGI [38] | TGI [39] | TGI [40] | TGI [41] | TGI [42] | TGI [43] | TGI [44] | TGI [45] | TGI [46] | TGI [47] | TGI [48] | TGI [51] | TGI [52] | TGI [53] | TGI [54] | TGI [55] | TGI [56] | TGI [57]
> 21.7 µM: TGI [50]
> 23.3 µM: TGI [49]
inactive: GI50 [1] > 23.1 µM | GI50 [2] 13.5 µM | GI50 [3] 12.2 µM | GI50 [4] 18.7 µM | GI50 [5] > 25 µM | GI50 [6] 11.1 µM | GI50 [7] 10.2 µM | GI50 [8] 12.4 µM | GI50 [9] > 25 µM | GI50 [10] > 25 µM | GI50 [11] 11 µM | GI50 [12] 10.9 µM | GI50 [13] 9.36 µM | GI50 [14] 21.8 µM | GI50 [15] 7.08 µM | GI50 [16] 9.15 µM | GI50 [17] 10.9 µM | GI50 [18] > 25 µM | GI50 [19] 8.71 µM | GI50 [20] 13.1 µM | GI50 [21] 13.8 µM | GI50 [22] 13.9 µM | GI50 [23] > 25 µM | GI50 [24] 11.7 µM | GI50 [25] 7.24 µM | GI50 [26] 7.55 µM | GI50 [27] 9.56 µM | GI50 [28] 21.5 µM | GI50 [29] 22.2 µM | GI50 [30] 9.27 µM | GI50 [31] 8.56 µM | GI50 [32] 20.1 µM | GI50 [33] 18.1 µM | GI50 [34] 18.1 µM | GI50 [35] > 25 µM | GI50 [36] 14.7 µM | GI50 [37] 12.7 µM | GI50 [38] 13 µM | GI50 [39] > 25 µM | GI50 [40] 18 µM | GI50 [41] 11.4 µM | GI50 [42] 9.5 µM | GI50 [43] > 25 µM | GI50 [44] > 25 µM | GI50 [45] 8.21 µM | GI50 [46] > 25 µM | GI50 [47] 12.6 µM | GI50 [48] 13.6 µM | GI50 [49] 3.93 µM | GI50 [50] 7.06 µM | GI50 [51] 10.1 µM | GI50 [52] 15.1 µM | GI50 [53] > 25 µM | GI50 [54] 11.7 µM | GI50 [55] > 25 µM | GI50 [56] > 19.3 µM | GI50 [57] 10.1 µM

Source: PubChem BioAssay (NCI)
